Measured values reported in US9629848B2, “Compounds that modulate autoimmunity and methods of using the same” (The Regents of the University of Colorado, a body corporate, priority 2011, dated 2017).

Tests used:
[1] = tested on: T cell response to the autoantigen, amino acids 9-23 in the B chain of insulin; assay: Inhibition of T cell response to insulin B chain amino acids 9-23; format: cell-based, mouse
Description: (§1) This molecule inhibited the insulin presentation to T cells capable of causing diabetes in mice and T cells responding to insulin in humans. […] Specificity was shown by using the molecule to inhibit tetramer binding (I-A^g^7 complexed to insulin peptides) to T cells.

[2] = tested on: 5KC cells transduced with a 4-8 TCR; assay: Endogenous insulin presentation: whole insulin with I-A^g^7 splenocytes and 4-8 TCR transduced 5KC cells; format: cell-based, mouse
Protocol: (§2) The ability of the small molecules to block endogenous insulin presentation was tested. Incubation of whole insulin with I-A^g^7 containing splenocytes activates 5KC cells (T cell hybridoma lacking endogenous TCRα and β chains) transduced with a 4-8 TCR. […] To document direct effects of these small molecules on inhibiting peptide binding to I-A^g^7, an I-A^g^7 protein construct was expressed in baculovirus with a linked peptide. The flexible linker contained a thrombin cleavage site, allowing for thrombin cleavage of the linker and release of the peptide.

Anti-CD3 stimulation = Anti-CD3 stimulation control in ex vivo biomarker assay; parameters: species or system DQ8 humanized mice; conditions: mouse
Protocol: The IL-2 response from the TCR transfectomas using splenocytes harvested within 2 hours from TATD treated mice was abrogated compared to PBS treated controls (FIGS. 13A and 13B). Anti-CD3 stimulation was not inhibited in the presence of TATD.

[3] = tested on: clone 5 TCR transfectomas, insulin B:13-23 antigen; assay: Ex vivo biomarker assay in DQ8 humanized mice, clone 5 TCR transfectomas with insulin B:13-23
Protocol: (§3) TATD was further evaluated in humanized DQ8 mice. These mice are on a NOD background, I-A null, and contain transgenes for DQ8 and human CD4 (NOD, I-A^g^7 null, DQ8 transgene, Rag KO). TATD was used to develop a rapid ex vivo biomarker assay to monitor the effects of small molecules on antigen presentation in DQ8 humanized mice. To identify a biomarker, mice were treated in vivo with TATD (either by intraperitoneal injection or gastric gavage) and isolated splenocytes or peripheral blood mononuclear cells (PBMCs) were used to monitor antigen presentation to DQ8 restricted T cell receptor (TCR) transfectomas.
(§4) Using this biomarker assay, DQ8 humanized mice were treated with a single intraperitoneal dose of TATD (20 mg/kg) and then sacrificed 2 hours later. Splenocytes from treated mice were cultured with the insulin B:13-23 antigen in the presence of clone 5 TCR transfectomas, or deamidated α-gliadin in the presence of the 489 TCR transfectoma. No TATD was added in vitro to the stimulation assays. Control mice received IP injections of PBS (the vehicle in which TATD is dissolved).

DQ8 = DQ8 (Homo sapiens, UniProt P01909+P01920, A209T/A45G/C70Q/D89A/DUP78-78/E183D/E77G/F237L/G63E/H199R/I129T/K197E/L178F/L74F/L98V/Q57E/Q76R/S185I/S97I/T217I/T49S/V73L/Y58L); assay: Competitive binding assay B:9-23 to DQ8
[4] = tested on: I-A^g^7 complexed to insulin peptides; assay: Tetramer staining, I-A^g^7 complexed to insulin peptides; format: cell-based, mouse
Description: as §1

NOD mice = assay: Insulin autoantibody production and diabetes onset in NOD mice; format: in vivo, mouse; conditions: 20 mg/kg IP daily from 4 to 12 weeks of age
Protocol: To test the efficacy of this molecule in vivo, Jackson NOD mice were treated with TATD at a dose of 20 mg/kg IP daily starting at 4 weeks of age. Treatment ceased at 12 weeks of age. Insulin autoantibody (IAA) was measured before treatment at 8, 10, 12, 16, 20, and 24 weeks of age.

I-A^g^7 = assay: Soluble binding assay, B:9-23 peptide to empty I-A^g^7; parameters: species or system mouse; conditions: dose dependent
[5] = target: T1, I-A^b complexed to a 3K peptide (Mus musculus, UniProt P14434+P14483); assay: Tetramer staining, I-A^b complexed to a 3K peptide; format: cell-based; conditions: specificity control
T1 sequence (P14434 24-218 limits assumed): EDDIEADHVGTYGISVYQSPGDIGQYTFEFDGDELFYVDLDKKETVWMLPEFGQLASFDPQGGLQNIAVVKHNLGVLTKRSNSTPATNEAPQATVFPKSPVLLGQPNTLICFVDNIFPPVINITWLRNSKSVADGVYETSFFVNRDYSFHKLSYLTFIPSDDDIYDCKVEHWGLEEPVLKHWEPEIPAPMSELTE
T1 sequence (P14483 28-226 limits assumed): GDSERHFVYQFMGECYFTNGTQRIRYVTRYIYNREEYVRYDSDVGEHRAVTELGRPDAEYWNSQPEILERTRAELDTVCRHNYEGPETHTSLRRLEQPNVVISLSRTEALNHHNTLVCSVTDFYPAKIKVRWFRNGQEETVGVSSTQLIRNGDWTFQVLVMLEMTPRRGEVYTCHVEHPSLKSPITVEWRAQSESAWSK

[6] = tested on: human T cell receptor recognizing insulin B:9-23 presented by human DQ8; assay: Inhibition of human T cell receptor recognizing insulin B:9-23 presented by human DQ8; format: cell-based
Description: Using a TCR sequence obtained from a T cell line generated from the peripheral blood of a diabetic individual with DQ8 molecule, a TCR was identified that is DQ8 restricted and responds to the insulin B:9-23 peptide.
Molecules predicted to occupy pockets 1 and 9 of the human DQ8 peptide binding groove were identified using in silico molecular docking program. The top scoring compounds for each pocket were screened for their ability to inhibit anti-B:9-23 T cell responses. FIGS. 9A and 9B represent the results of the T cell stimulation assay for compounds occupying pocket 1 and pocket 9 of the human DQ8 peptide binding groove, respectively.

[7] = tested on: 489 TCR transfectoma, deamidated α-gliadin; assay: Ex vivo biomarker assay in DQ8 humanized mice, 489 TCR transfectoma with deamidated α-gliadin; conditions: pooled PBMCs from treated mice
Protocol: as §3, §4

[8] = tested on: isolated whole islets from an adult non-diabetic NOD mouse; assay: TCR response to isolated whole islets; format: cell-based; conditions: islets containing beta cells
Protocol: as §2

[9] = tested on: DQ8 restricted T cell receptor (TCR) transfectomas; assay: Ex vivo biomarker assay in DQ8 humanized mice, duration and oral route

For `C1CN2CN3CCN(CN1C3)C2` [TATD, 1,3,6,8-tetraazatricyclo (4.4.1.1(3,8)) dodecane], the “Concentration inhibiting T cell response to insulin B:9-23” value [1] was “low nanomolar”, the “Inhibition of endogenous antigen presentation of whole insulin by antigen presenting cells” value [2] was “able to inhibit endogenous antigen presentation” and the Anti-CD3 stimulation (Anti-CD3 stimulation) was “not inhibited”. For the same molecule, the “Clone 5 response to insulin B:13-23 presented by PBMCs” value ([3]; pooled PBMCs from treated mice) was “blocked”, the “IL-2 response of clone 5 TCR transfectomas, splenocytes” value ([3]; single 20 mg/kg IP dose, splenocytes harvested within 2 hours, vs PBS controls) was “abrogated” and the “Block of peptide binding to DQ8” value (DQ8) was “block peptide binding”. For the same molecule, the IC50 (DQ8) was 4.5 pM, the “Tetramer staining of T cells recognizing insulin B:9-23 presented by I-A^g^7” value [4] was “inhibited tetramer staining” and the Diabetes onset (NOD mice) was “prevents diabetes onset”. The “Insulin autoantibody (IAA) formation” value (NOD mice; IAA up to 24 weeks) was “blocks IAA formation”, the “Inhibition of B:9-23 peptide binding to I-A^g^7” value (I-A^g^7) was “block peptide binding” and the “T cell staining with I-A^b / 3K peptide tetramer” value [5] was “did not alter T cell staining”. For the same molecule, the “Concentration inhibiting antigen presentation by human DQ8 to T cells involved in type 1 diabetes” value [6] was “low nanomolar”, the “489 TCR transfectoma response to deamidated α-gliadin presented by PBMCs” value [7] was “the same response is seen” and the “Inhibition of TCR response to whole islets” value [8] was “able to inhibit endogenous antigen presentation”. The “Blocking IL-2 production from the TCR transfectomas” value ([9]; gastric gavage) was “effective at blocking IL-2 production”, the Oral absorption ([9]; gastric gavage) was “orally absorbed” and the “Duration of effects on antigen presentation” value ([9]; single dose) was 7 days.
